Assay results: patent publication US8748624B2, “Picolinamido-propanoic acid derivatives useful as glucagon receptor antagonists” (Janssen Pharmaceutica NV, priority 2011, dated 2014)
pKi: −log10 of the molar value.

Tests used:
[1] = molecular target: human glucagon receptor (GCGR) (Homo sapiens (Human), UniProt P47871); test: Inhibition of 125I-glucagon binding to membranes from HEK293 cells expressing the human glucagon receptor; details: membranes of hGluc-1 HEK cells, 125I-glucagon 0.3 nM, 2 hours room temperature; IC50 converted to Ki; average if tested more than once
Protocol: Inhibition ^125I-Glucagon Binding to Membranes from HEK293 Cells Expressing the Human Glucagon Receptor (GCGR)
Full-length human GCGR (Accession Number: NM000160) subcloned into pcDNA3.1 was stably transfected into HEK293 cells (hGluc-1 HEK) and maintained under G418 selection (500 μg/mL). Cell cultures were maintained in DMEM/F12 media supplemented with 10% FBS and 1% GlutaMax. Membranes were prepared from these cells as follows: cells were harvested from T225 flasks and re-suspended in hypotonic lysis buffer, 50 mM HEPES pH 7.4 supplemented with Complete Protease inhibitors (Boehringer Mannheim, Indianapolis, Ind.). Cells were dounced 20 times on ice and spun at 700×g to remove nuclei and unlysed cells. The resulting pellet was re-suspended in hypotonic lysis buffer and the above step was repeated. Supernatants from the low speed centrifugation were combined and subsequently spun at 100K×g for 1 hr at 4° C. and the resulting pellet was re-suspended in buffer containing 50 mM HEPES pH 7.4 and 10% sucrose and the protein concentration was adjusted at 1 mg/mL as determined in the BCA assay. Membranes were aliquoted and stored at −80° C. The binding assay was performed by a filtration method in a 384 well format. Membranes at a final protein concentration of 6 μg/well were incubated with ^125I-glucagon at 0.3 nM and in the presence of compound for 2 hours at room temperature in a total reaction volume of 40 μL per well. Assay buffer consisted of 50 mM HEPES, pH 7.4, 5 mM MgCl2, 1 mM CaCl2 and 0.2% BSA. 30 μL of the reaction was then transferred to PEI treated filter plates and followed by filter aspiration. Plates were then washed 5× and allowed to dry at room temperature overnight. The next day the bottom of the plate was covered with seal tape and scintillant was added. Total counts retained by the filters were quantified with a Top Count instrument. IC50's were generated by using a non-linear regression macro driven in Excel and converted to K's.

human GCGR = human GCGR (Homo sapiens (Human), UniProt P47871); test: Cellular functional assay, cAMP readout (glucagon-stimulated cAMP in HEK293 cells expressing human GCGR); assay type: cell-based; details: hGluc-1 HEK cells, LANCE TR-FRET, IC50 converted to Ki, average if tested more than once
Protocol: IC50 Values in Cellular Functional Assays: cAMP Readout
Full-length human GCGR (Accession Number: NM000160) subcloned into pcDNA3.1 was stably transfected into HEK293 cells (hGluc-1 HEK) and maintained under G418 selection (500 μg/mL). Cell cultures were maintained in DMEM/F12 media supplemented with 10% FBS and 1% GlutaMax. Glucagon stimulated cAMP was quantified using LANCE technology as per manufacturer instructions. On the day of the experiment, spent media was removed and cells were washed with Hank's Buffered Saline solution (HBSS) and cells were harvested with non-enzymatic cell dissociation solution, then washed once with HBSS. Cells were re-suspended in stimulation buffer at a concentration of 0.83×10^6 cells/ml and cAMP detection antibody was added. 6 μl/well of this solution was then dispensed in a 384 well plate (cell density 5000 cells/well). Test compound was serially diluted in DMSO and 50 nl were dispensed on top of the cell solution and allowed to incubate for 30 minutes. 6 μl of a 2× glucagon solution (final concentration in assay […]) was then added and the reaction was terminated after 5 minutes with the addition of detection mix. The mixture was incubated, protected from light for 1.5 h. cAMP levels were quantified by TR-FRET in an EnVision instrument against a known standard. IC50's were generated by using a non-linear regression macro driven in Excel and converted to K, values.

human GCGR, sequence (P47871 26-477): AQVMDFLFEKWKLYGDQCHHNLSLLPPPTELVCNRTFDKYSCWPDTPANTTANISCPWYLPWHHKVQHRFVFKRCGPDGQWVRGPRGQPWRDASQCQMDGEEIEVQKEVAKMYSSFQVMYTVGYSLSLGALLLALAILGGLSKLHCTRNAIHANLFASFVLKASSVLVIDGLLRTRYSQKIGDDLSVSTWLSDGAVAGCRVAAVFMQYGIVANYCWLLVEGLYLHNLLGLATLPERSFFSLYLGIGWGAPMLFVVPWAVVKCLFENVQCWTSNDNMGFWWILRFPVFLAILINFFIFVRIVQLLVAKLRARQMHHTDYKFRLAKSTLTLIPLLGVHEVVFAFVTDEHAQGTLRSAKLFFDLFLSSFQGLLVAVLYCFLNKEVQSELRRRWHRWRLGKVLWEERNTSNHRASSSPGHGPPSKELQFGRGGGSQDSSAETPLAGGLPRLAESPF
human glucagon receptor (GCGR), sequence (P47871 26-477): as above

Compound	pKi [1]	pKi (human GCGR)
O=C(O)CCNC(=O)c1ccc(-c2cc(F)c(F)cc2CNc2ccc(-c3ccc(Cl)c(C(F)(F)F)c3)c(Cl)c2)cn1 [Compound 106, 3-(5-(2-(((2,4′-dichloro-3′-(trifluoromethyl)-[1,1′-biphenyl]-4-yl)amino)methyl)-4,5-difluorophenyl)picolinamido)propanoic acid]	7.58	6.49
O=C(O)CCNC(=O)c1ccc(-c2cc(F)c(F)cc2CNc2ccc(-c3ccc(Cl)cc3)cc2)cn1 [Compound 117, 3-(5-(2-(((4′-chloro-[1,1′-biphenyl]-4-yl)amino)methyl)-4,5-difluorophenyl)picolinamido)propanoic acid]	7.36	6.80
O=C(O)CCNC(=O)c1ccc(-c2cc(Cl)ccc2CNc2ccc(-c3ccc(F)c(F)c3)cc2)cn1 [Compound 136, 3-(5-(5-chloro-2-(((3′,4′-difluoro-[1,1′-biphenyl]-4-yl)amino)methyl)phenyl)picolinamido)propanoic acid]	7.54	6.60
O=C(O)CCNC(=O)c1ccc(-c2cc(Cl)ccc2CNc2ccc(-c3ccc(F)c(Cl)c3)c(Cl)c2)cn1 [Compound 171, 3-(5-(5-chloro-2-(((2,3′-dichloro-4′-fluoro-[1,1′-biphenyl]-4-yl)amino)methyl)phenyl)picolinamido)propanoic acid]	7.44	6.93
Cc1cc(Cl)ccc1-c1ccc(NCc2cc(Cl)c(C(F)(F)F)cc2-c2ccc(C(=O)NCCC(=O)O)nc2)cc1 [Compound 77, 3-(5-(4-chloro-2-(((4′-chloro-2′-methyl-[1,1′-biphenyl]-4-yl)amino)methyl)-5-(trifluoromethyl)phenyl)picolinamido)propanoic acid]	7.62	7.65
O=C(O)CCNC(=O)c1ccc(-c2cc(C(F)(F)F)ccc2CNc2ccc(-c3ccc(Cl)cc3)c(C(F)(F)F)c2)cn1 [Compound 123, 3-(5-(2-(((4′-chloro-2-(trifluoromethyl)-[1,1′-biphenyl]-4-yl)amino)methyl)-5-(trifluoromethyl)phenyl)picolinamido)propanoic acid]		6.96
O=C(O)CCNC(=O)c1ccc(-c2cc(C(F)(F)F)ccc2CNc2ccc(-c3ccc(C(F)(F)F)cc3)c(C(F)(F)F)c2)cn1 [Compound 127, 3-(5-(2-(((2,4′-bis(trifluoromethyl)-[1,1′-biphenyl]-4-yl)amino)methyl)-5-(trifluoromethyl)phenyl)picolinamido)propanoic acid]		7.15
Cc1cc(C(F)(F)F)ccc1-c1ccc(NCc2c(-c3ccc(C(=O)NCCC(=O)O)nc3)cc(C(F)(F)F)cc2C(F)(F)F)cc1 [Compound 83, 3-(5-(2-(((2′-methyl-4′-(trifluoromethyl)-[1,1′-biphenyl]-4-yl)amino)methyl)-3,5-bis(trifluoromethyl)phenyl)picolinamido)propanoic acid]		7.85
Cc1cc(Cl)ccc1-c1ccc(NCc2ccc(C(F)(F)F)cc2-c2ccc(C(=O)NCCC(=O)O)nc2)cc1C(F)(F)F [Compound 119, 3-(5-(2-(((4′-chloro-2′-methyl-2-(trifluoromethyl)-[1,1′-biphenyl]-4-yl)amino)methyl)-5-(trifluoromethyl)phenyl)picolinamido)propanoic acid]		7.22
O=C(O)CCNC(=O)c1ccc(-c2cc(Cl)ccc2CNc2ccc(-c3ccc(F)cc3F)cc2)cn1 [Compound 18, 3-(5-(5-chloro-2-(((2′,4′-difluoro-[1,1′-biphenyl]-4-yl)amino)methyl)phenyl)picolinamido)propanoic acid]		6.55
O=C(O)CCNC(=O)c1ccc(-c2cc(C(F)(F)F)cc(C(F)(F)F)c2CNc2ccc(-c3cccc(Cl)c3Cl)cc2)cn1 [Compound 84, 3-(5-(2-(((2′,3′-dichloro-[1,1′-biphenyl]-4-yl)amino)methyl)-3,5-bis(trifluoromethyl)phenyl)picolinamido)propanoic acid]		7.44

Now from value to compound:

pKi [1]	pKi (human GCGR)	Compound
7.74	6.96	O=C(O)CCNC(=O)c1ccc(-c2cc(C3=CCCCC3)ccc2CNc2ccc(-c3ccc(F)cc3)cc2)cn1 [Compound 174, 3-(5-(4-(((4′-fluoro-[1,1′-biphenyl]-4-yl)amino)methyl)-2′,3′,4′,5′-tetrahydro-[1,1′-biphenyl]-3-yl)picolinamido)propanoic acid]
6.71	5.86	COc1ccc(-c2ccc(C(=O)NCCC(=O)O)nc2)c(CNc2ccc(-c3ccc(Cl)cc3Cl)cc2)c1 [Compound 60, 3-(5-(2-(((2′,4′-dichloro-[1,1′-biphenyl]-4-yl)amino)methyl)-4-methoxyphenyl)picolinamido)propanoic acid]
6.86	6.22	O=C(O)CCNC(=O)c1ccc(-c2cc(F)c(F)cc2C(=O)Nc2ccc(-c3ccc(F)cc3)cc2)cn1 [Compound 95, 3-(5-(4,5-difluoro-2-((4′-fluoro-[1,1′-biphenyl]-4-yl)carbamoyl)phenyl)picolinamido)propanoic acid]
	7.34	COc1cc(C(F)(F)F)cc(-c2ccc(C(=O)NCCC(=O)O)nc2)c1CNc1ccc(-c2ccc(C(F)(F)F)cc2)c(Cl)c1 [Compound 159, 3-(5-(2-(((2-chloro-4′-(trifluoromethyl)-[1,1′-biphenyl]-4-yl)amino)methyl)-3-methoxy-5-(trifluoromethyl)phenyl)picolinamido)propanoic acid]
	7.46	Cc1cc(NCc2c(-c3ccc(C(=O)NCCC(=O)O)nc3)cc(C(F)(F)F)cc2C(F)(F)F)ccc1-c1ccc(Cl)cc1 [Compound 86, 3-(5-(2-(((4′-chloro-2-methyl-[1,1′-biphenyl]-4-yl)amino)methyl)-3,5-bis(trifluoromethyl)phenyl)picolinamido)propanoic acid]
	8.19	Cc1cc(Cl)ccc1-c1ccc(NCc2c(C)cc(C(F)(F)F)cc2-c2ccc(C(=O)NCCC(=O)O)nc2)cc1Cl [Compound 165, 3-(5-(2-(((2,4′-dichloro-2′-methyl-[1,1′-biphenyl]-4-yl)amino)methyl)-3-methyl-5-(trifluoromethyl)phenyl)picolinamido)propanoic acid]
	7.84	O=C(O)CCNC(=O)c1ccc(-c2cc(C(F)(F)F)cc(C(F)(F)F)c2CNc2ccc(-c3ccc(Cl)cc3)c(Cl)c2)cn1 [Compound 76, 3-(5-(2-(((2,4′-dichloro-[1,1′-biphenyl]-4-yl)amino)methyl)-3,5-bis(trifluoromethyl)phenyl)picolinamido)propanoic acid]
	7.18	N#Cc1cc(NCc2ccc(Cl)cc2-c2ccc(C(=O)NCCC(=O)O)nc2)ccc1-c1ccc(Cl)cc1Cl [Compound 99, 3-(5-(5-chloro-2-(((2′,4′-dichloro-2-cyano-[1,1′-biphenyl]-4-yl)amino)methyl)phenyl)picolinamido)propanoic acid]
	7.43	Cc1cc(C(F)(F)F)ccc1-c1ccc(NCc2ccc(C(F)(F)F)cc2-c2ccc(C(=O)NCCC(=O)O)nc2)cc1C(F)(F)F [Compound 120, 3-(5-(2-(((2′-methyl-2,4′-bis(trifluoromethyl)-[1,1′-biphenyl]-4-yl)amino)methyl)-5-(trifluoromethyl)phenyl)picolinamido)propanoic acid]
	< 4.70	COc1ccc(CNc2ccc(-c3ccc(OC(F)(F)F)cc3)cc2)c(-c2ccc(C(=O)NCCC(=O)O)nc2)c1 [Compound 48, 3-(5-(5-methoxy-2-(((4′-(trifluoromethoxy)-[1,1′-biphenyl]-4-yl)amino)methyl)phenyl)picolinamido)propanoic acid]
	7.07	O=C(O)CCNC(=O)c1ccc(-c2cc(C(F)(F)F)ccc2CNc2ccc(-c3ccc(Cl)cc3Cl)c(C(F)(F)F)c2)cn1 [Compound 122, 3-(5-(2-(((2′,4′-dichloro-2-(trifluoromethyl)-[1,1′-biphenyl]-4-yl)amino)methyl)-5-(trifluoromethyl)phenyl)picolinamido)propanoic acid]
